Test results: PMC8175851, “Effects of Genetic Polymorphism in CYP2D6, CYP2C19, and the Organic Cation Transporter OCT1 on Amitriptyline Pharmacokinetics in Healthy Volunteers and Depressive Disorder Patients” (Frontiers in Pharmacology, 2021)
Where two headings read alike, the source gives them in different places.

Columns and labels:
[1] = Pharmacokinetics of AT and NT in healthy volunteers after a single dose of 25 mg amitriptyline; assay type: in vivo, human; settings: healthy volunteers; for Tmax / half-life / AUC(0-inf) / Cmax / AUC(0-t): human, plasma, po, 25 mg; for Tmax / half-life / AUC(0-inf) / Cmax / Vz / CL / AUC(0-t): single oral 25 mg AT; for AUC(0-inf): read-out: AUCinf; for AUC(0-t): read-out: AUC48h
Source text: In order to enrich the study sample with the less frequent functionally deficient OCT1 variants, participants were selected based on OCT1 genotype from an internal database at the Institute of Clinical Pharmacology of the University Medical Center Göttingen. All volunteers who are listed in the internal database had agreed to it and the database was approved by the ethics committee of the University of Göttingen. […] Additional subjects with heterozygous genotypes were included to provide a better understanding of the effects of specific variants and the mode of inheritance. All volunteers gave their written informed consent before participation in the study. The study was approved by the ethics committee of the University of Göttingen and the German Federal Institute for Drugs and Medical Devices (BfArM). It was registered at the clinical trials databases Clinicaltrials.gov (NCT02054299) and EudraCT (number 2012-003546-33). […] Volunteers who underwent regular drug treatments other than oral contraceptives or who suffered from any relevant chronic illness, as well as pregnant or lactating women, were not included. All subjects were healthy according to a detailed medical history, medical examination, electrocardiogram, urine status and clinical chemistry, and haematology parameters (sodium, potassium, total bilirubin, aspartate aminotransferase, alanine-aminotransferase, creatinine, C-reactive protein, thyroid-stimulating hormone, haemoglobin, erythrocyte, thrombocyte, and leucocyte counts). […] After centrifugation (13,000 rpm, 15 min, room temperature), two-thirds of the supernatant were transferred to a new reaction tube and evaporated at 40°C under nitrogen flow. The residue was reconstituted under shaking in 0.1% methanoic acid and briefly centrifuged before quantification using a Nexera UHPLC system (Shimadzu, Kyoto, Japan) coupled to an API 4000 tandem mass spectrometer (AB Sciex, Darmstadt, Germany). […] PerkinElmer, Rodgau, Germany) with a Phenomenex C18 pre-column (4 × 2 mm, Phenomenex, Aschaffenburg, Germany). […] The lower limit of quantification was 0.5 ng/ml for AT and 0.1 ng/ml for NT. […] The mass spectrometry detection parameters are listed in Supplementary Table S1. For the study in healthy volunteers, the primary endpoints were the AUCs of plasma AT and NT concentrations. Secondary endpoints were the other pharmacokinetic parameters of AT and NT, as well as heart rate, blood pressure, pupil size effects, and possible adverse events (headache, fatigue, visual or hearing impairments, restlessness, nausea, dizziness, dry mouth, tremor, as well as sensations of hypothermia and heart palpitations determined using a visual analogue scale test). Pharmacokinetic parameters were calculated by non-compartmental analysis using Phoenix 64 WinNonlin version 6.3 (Certara Inc., Princeton, NJ, United States). AUCinf of AT was calculated from the time of dosing using the linear/log trapezoidal rule and extrapolated to infinity based on the last predicted concentration and using the terminal elimination rate constant (lambda z). AUC of NT was calculated from the time of dosing until the last measurement at 48 h using the linear/log trapezoidal rule, as a decline in NT concentrations was not observed in some subjects and extrapolation to infinity thus not possible.

[2] = Plasma concentrations per dose unit of AT and NT in depressive disorder patients (75 mg AT twice daily); assay type: in vivo, human; settings: 12-hour-trough levels
Description: Briefly, 75 mg AT was administered twice daily at 12 h dosing intervals. Any drugs or dietary ingredients that might interfere with CYP2D6 or CYP2C19 metabolism were avoided whenever possible. Blood samples (12-hour-trough levels) were taken on days 0, 7, 14, 18, and 21, centrifuged, and stored at 4°C for genotyping (CYP2D6 and CYP2C19) and concentration analyses. The blood samples were subsequently stored at −20°C and later genotyped for OCT1.
The serum concentrations in depressive disorder patients were determined either by the Emit® immunoassay specific for AT and NT or a commercial high-performance liquid chromatography assay (Bio-Rad Laboratories GmbH, Feldkirchen, Germany), as described before ([Steimer et al., 2004]; [Steimer et al., 2005]).
The correlation between AT and NT plasma AUC (study in healthy volunteers) or mean plasma concentration per dose unit (study in depressive disorder patients) and OCT1, CYP2D6, and CYP2C19 genotypes were calculated using the Jonckheere-Terpstra non-parametric analysis, which takes into consideration the a priori ordering (or trend) in gene activities from zero to normal to ultra-rapid (for CYP2C19 and CYP2D6). To do so, the genotypes were categorized into 0, 1, or 2 active alleles for OCT1, into 0, 0.5, 1, 1.5, 2, 2.5, or 3 active alleles for CYP2D6, and into 0, 1, 1.5, 2, 2.5, or 3 active alleles for CYP2C19, depending on their known effects on transporter/enzyme activity. OCT1 alleles *2, *3, *4, *5 were classified as being zero active. […] A semi-quantitative gene dosage was calculated for CYP2D6, as has been described earlier ([Steimer et al., 2004]). For calculating a CYP2C19 activity score, CYP2C19*2 was regarded as zero active, CYP2C19*1 was classified as 1, and CYP2C19*17 as 1.5. Additional multiple linear regression analyses included sex, age, body mass index, and glomerular filtration rate.

[3] = both sexes, CYP2D6 activity 2 (n = 11), mean
[4] = both sexes, CYP2D6 activity 2.5 (n = 1), mean
[5] = both sexes, CYP2D6 activity 3 (n = 2), mean
[6] = CYP2C19 activity score 0 (n = 1), mean
[7] = CYP2C19 activity score 3 (n = 1), mean

## CN(C)CCC=C1c2ccccc2CCc2ccccc21 [Amitriptyline, amitriptyline]
[1]; [3]
  Tmax: 3.4 h
  half-life: 19.5 h
[1]; [4]
  Tmax: 6 h
  half-life: 14 h
[1]; [5]
  Tmax: 2 h
  half-life: 20.6 h
[1]; both sexes, OCT1 genotype *1 / *1 (n 14), mean ± standard deviation
  AUC(0-inf): 243 ± 88 ng·h/mL
[1]; both sexes, OCT1 genotype *1 / *2 (n 3), mean ± standard deviation
  AUC(0-inf): 273 ± 59 ng·h/mL
[1]; both sexes, OCT1 genotype *1 / *3 (n 4), mean ± standard deviation
  AUC(0-inf): 216 ± 87 ng·h/mL
[1]; both sexes, OCT1 genotype *1 / *4 (n 2), mean ± standard deviation
  AUC(0-inf): 187 ± 49 ng·h/mL
[1]; both sexes, OCT1 genotype *2 / *2 (n 3), mean ± standard deviation
  AUC(0-inf): 202 ± 92 ng·h/mL
[1]; both sexes, OCT1 genotype *2 / *3 (n 4), mean ± standard deviation
  AUC(0-inf): 189 ± 53 ng·h/mL
[1]; both sexes, OCT1 genotype *2 / *5 (n 1)
  AUC(0-inf): 298 ng·h/mL
[1]; both sexes, OCT1 genotype *3 / *3 (n 3), mean ± standard deviation
  AUC(0-inf): 172 ± 28 ng·h/mL
[1]; both sexes, OCT1 genotype *3 / *4 (n 1)
  AUC(0-inf): 215 ng·h/mL
[1]; both sexes, read-out: average Cmax
  Cmax: 39 nM
[1]; both sexes, read-out: average Cmax (average peak plasma concentration)
  Cmax: 10.7 ng/mL
[1]; 25 mg AT, from peak plasma concentration with 95% plasma protein binding
  peak concentration of unbound AT: 0.54 µg/L
[1]; 0 active OCT1 alleles (n = 12)
  Vz: 3,828 ± 800 L
[1]; 1 active OCT1 allele (n = 9)
  Vz: 3,610 ± 1,633 L
[1]; 2 active OCT1 alleles (n = 14)
  Vz: 3,401 ± 1,041 L
[1]; CL/F = dose/AUCinf, 0 active OCT1 alleles (n = 12)
  CL: 2.3 ± 0.6 L/min
[1]; CL/F = dose/AUCinf, 1 active OCT1 allele (n = 9)
  CL: 2.0 ± 0.8 L/min
[1]; CL/F = dose/AUCinf, 2 active OCT1 alleles (n = 14)
  CL: 1.9 ± 0.6 L/min
[1]; CL/F, CYP2C19 activity score 0 (n = 1), mean
  CL: 1.30 L/min
[1]; CL/F, CYP2C19 activity score 1 (n = 5), mean
  CL: 1.94 L/min
[1]; CL/F, CYP2C19 activity score 1.5 (n = 2), mean
  CL: 1.5 L/min
[1]; CL/F, CYP2C19 activity score 2 (n = 16), mean
  CL: 2.1 L/min
[1]; CL/F, CYP2C19 activity score 2.5 (n = 10), mean
  CL: 2.2 L/min
[1]; CL/F, CYP2C19 activity score 3 (n = 1), mean
  CL: 1.54 L/min
[1]; CL/F, CYP2D6 activity 0 (n = 3), mean
  CL: 1.45 L/min
[1]; CL/F, CYP2D6 activity 0.5 (n = 2), mean
  CL: 2.09 L/min
[1]; CL/F, CYP2D6 activity 1 (n = 10), mean
  CL: 1.81 L/min
[1]; CL/F, CYP2D6 activity 1.5 (n = 6), mean
  CL: 2.03 L/min
[1]; CL/F, CYP2D6 activity 2 (n = 11), mean
  CL: 2.25 L/min
[1]; CL/F, CYP2D6 activity 2.5 (n = 1), mean
  CL: 2.64 L/min
[1]; CL/F, CYP2D6 activity 3 (n = 2), mean
  CL: 2.92 L/min
[1]; [6]
  Vz: 3,004 L
  AUC(0-t): 229 ng·h/mL
  AUC(0-inf): 321 ng·h/mL
  Tmax: 4 h
  half-life: 26.7 h
[1]; CYP2C19 activity score 1 (n = 5), mean
  Vz: 3,525 L
[1]; CYP2C19 activity score 1.5 (n = 2), mean
  Vz: 2,559 L
[1]; CYP2C19 activity score 2 (n = 16), mean
  Vz: 3,696 L
[1]; CYP2C19 activity score 2.5 (n = 10), mean
  Vz: 3,740 L
[1]; [7]
  Vz: 3,762 L
  AUC(0-t): 198 ng·h/mL
  AUC(0-inf): 271 ng·h/mL
  Tmax: 2 h
  half-life: 28.3 h
[1]; CYP2D6 activity 0 (n = 3), mean
  Vz: 2,982 L
[1]; CYP2D6 activity 0.5 (n = 2), mean
  Vz: 4,189 L
[1]; CYP2D6 activity 1 (n = 10), mean
  Vz: 3,269 L
[1]; CYP2D6 activity 1.5 (n = 6), mean
  Vz: 3,446 L
[1]; CYP2D6 activity 2 (n = 11), mean
  Vz: 3,768 L
[1]; CYP2D6 activity 2.5 (n = 1), mean
  Vz: 3,192 L
[1]; CYP2D6 activity 3 (n = 2), mean
  Vz: 5,361 L
[1]; CYP2C19 activity score 0 (n = 1), mean, read-out: Cmax
  Cmax: 11.5 ng/mL
[1]; CYP2C19 activity score 3 (n = 1), mean, read-out: Cmax
  Cmax: 13.9 ng/mL
[2]; OCT1 genotype *1 / *1 (n 27), mean ± standard deviation
  Mean plasma concentration per dose unit: 37.3 ± 15.9
[2]; OCT1 genotype *1 / *2 (n 14), mean ± standard deviation
  Mean plasma concentration per dose unit: 44.0 ± 15.2
[2]; OCT1 genotype *1 / *3 (n 2), mean ± standard deviation
  Mean plasma concentration per dose unit: 56.9 ± 36.0
[2]; OCT1 genotype *1 / *4 (n 1)
  Mean plasma concentration per dose unit: 38.7
[2]; OCT1 genotype *2 / *2 (n 3), mean ± standard deviation
  Mean plasma concentration per dose unit: 47.6 ± 15.4
[2]; OCT1 genotype *2 / *3 (n 2), mean ± standard deviation
  Mean plasma concentration per dose unit: 52.6 ± 31.9
[2]; OCT1 genotype *3 / *3 (n 1)
  Mean plasma concentration per dose unit: 53.9
